Assay results: patent US20170020890A1, “PHARMACEUTICAL COMPOSITION COMPRISING FATTY ACID DERIVATIVE” (SUCAMPO AG, priority 2015, published 2017)
Peptide text beside a SMILES is read from it.

Experiment: Solubility of sweetening agents in medium-chain triglycerides (MCT)
Settings: not given
Method: 18 mg of neotame, 20 mg of saccharin, 1 mg of sodium saccharin or 5 mg of thaumatin was mixed with medium-chain triglycerides (MCT; USP/NF) to give the total weight of 180 g, 20 g, 100 g or 500 g respectively.
Solubility and sensory tests of sweetening agents were conducted. Specifically, 7.2 mg of neotame, 20 mg of saccharin or 5 mg of sucralose was mixed with medium-chain triglycerides (MCT; USP/NF) to give the total weight of 40 g, 20 g or 100 g, respectively. Additionally, 1 mg of a sweetening agent was mixed with medium-chain triglycerides (MCT; USP/NF) to give the total weight of its mixtures of 100 g. The sweetening agent was sodium saccharin, thaumatin, aspartame, acesulfame potassium, sucrose, glucose, fructose, lactose, D-sorbitol, or xylitol.

Compound | Solubility in MCT [w/w %] | Solubility in MCT, in words | Solubility to MCT [%]
OC[C@@H](O)[C@@H](O)[C@H](O)[C@@H](O)CO [D-Sorbitol, D-sorbitol] | <0.001 |  | 
OC[C@H]1O[C@H](O[C@]2(CCl)O[C@H](CCl)[C@@H](O)[C@@H]2O)[C@H](O)[C@@H](O)[C@H]1Cl [Sucralose, 1,6-Dichloro-1,6-dideoxy-β-D-fructofuranosyl-4-chloro-4-deoxy-α-D-galactopyranoside] | 0.005 | solved in MCT | 
OC[C@H]1O[C@@](CO)(O[C@H]2O[C@H](CO)[C@@H](O)[C@H](O)[C@H]2O)[C@@H](O)[C@@H]1O [Sucrose, sucrose] | <0.001 |  | 
OC[C@@H](O)[C@H](O)[C@@H](O)CO [Xylitol, xylitol] | <0.001 |  | 
thaumatin | <0.001 | did not solve in MCT | <0.001

Second part, the compound after the results:

Solubility in MCT [w/w %] | Solubility in MCT, in words | Solubility to MCT [%] | Compound
<0.001 |  |  | CC1=CC(=O)NS(=O)(=O)O1 [Acesulfame potassium, acesulfame potassium]
<0.001 |  |  | COC(=O)[C@H](Cc1ccccc1)NC(=O)[C@@H](N)CC(=O)O [Aspartame, aspartame] (H-Asp-Phe-OMe)
0.018 | solved in MCT | 0.01 | COC(=O)[C@H](Cc1ccccc1)NC(=O)[C@H](CC(=O)O)NCCC(C)(C)C [Neotame]
0.1 | solved in MCT | 0.1 | O=C1NS(=O)(=O)c2ccccc21 [Saccharin, 2H-1λ^6,2-benzothiazol-1,1,3-trione]

Same assay, conditions: Example 1; medium-chain triglycerides (USP/NF)

Compound | Solubility to MCT [%]
O=C1NS(=O)(=O)c2ccccc21.[Na] [Sodium saccharin, sodium saccharin] | <0.001

Same assay, conditions: Example 5; medium-chain triglycerides (USP/NF)

Compound | Solubility in MCT [w/w %]
O=C(CO)[C@@H](O)[C@H](O)[C@H](O)CO [Fructose, fructose] | <0.001
O=C1NS(=O)(=O)c2ccccc21.[Na] [Sodium saccharin, sodium saccharin] | <0.001

Same assay, conditions: Examples 1 and 5

Compound | Solubility in MCT, in words
O=C1NS(=O)(=O)c2ccccc21.[Na] [Sodium saccharin, sodium saccharin] | did not solve in MCT
